# Data reported in ChEMBL document CHEMBL1137837 (Bioorg Med Chem Lett, 2004).
# How the values were obtained:
# Oryctolagus cuniculus [1] = species on record: Oryctolagus cuniculus; experiment: Concentration required to inhibit electrically induced contraction of superfused guinea-pig trachea was determined
# [2] = Partition coefficient (logD); format: physicochemical; details: octanol/water
# [3] = target: Beta-2 adrenergic receptor (Homo sapiens, UniProt P07550)
# Description: Binding affinity for human beta-2 adrenergic receptor
# Oryctolagus cuniculus [4] = species on record: Oryctolagus cuniculus; experiment: Duration action in guinea pig
# Beta-2 adrenergic receptor, sequence (P07550 whole entry): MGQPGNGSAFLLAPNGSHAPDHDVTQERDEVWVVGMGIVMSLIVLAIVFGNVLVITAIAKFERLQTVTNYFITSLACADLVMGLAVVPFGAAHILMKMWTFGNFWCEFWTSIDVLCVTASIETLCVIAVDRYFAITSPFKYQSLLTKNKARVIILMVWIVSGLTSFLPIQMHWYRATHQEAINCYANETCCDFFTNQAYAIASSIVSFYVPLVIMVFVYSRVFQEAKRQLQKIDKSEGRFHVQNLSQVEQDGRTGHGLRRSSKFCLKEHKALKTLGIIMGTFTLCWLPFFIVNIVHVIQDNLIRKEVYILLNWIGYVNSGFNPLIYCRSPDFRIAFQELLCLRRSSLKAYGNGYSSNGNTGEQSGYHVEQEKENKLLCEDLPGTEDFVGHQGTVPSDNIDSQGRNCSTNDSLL
SMILES,IC50 (Oryctolagus cuniculus [1]),logD ([2]; read-out: logD),Ki [3],Duration (Oryctolagus cuniculus [4]),logD [2]
O=CNc1cc([C@@H](O)CNCCc2ccc(OCCc3ccccc3)cc2)ccc1O,1.1 nM,1.67,7.8 nM,,
O=CNc1cc([C@@H](O)CNCCc2ccc(OCCCCc3ccccc3)cc2)ccc1O,71 nM,2.83,9.2 nM,6.62 h,2.76
O=CNc1cc([C@@H](O)CNCCc2ccc(OC3Cc4ccccc4C3)cc2)ccc1O,251 nM,2.95,11.6 nM,,
O=CNc1cc([C@@H](O)CNCCc2ccc(Oc3ccccc3)cc2)ccc1O,120 nM,1.95,35.4 nM,,
O=CNc1cc([C@@H](O)CNCCc2cccc(OCCCOc3ccccc3)c2)ccc1O,164 nM,2,3.3 nM,5.43 h,2.49
OCc1cc(C(O)CNCCCCCCOCCCCc2ccccc2)ccc1O (stereo unspecified) [SALMETEROL],,,,,1.24
O=CNc1cc([C@@H](O)CNCCc2ccc(OCCCc3ccccc3)cc2)ccc1O,38 nM,2.35,5.9 nM,,
O=CNc1cc([C@@H](O)CNCCc2cccc(OCCCCc3ccccc3)c2)ccc1O,114 nM,2.83,8.5 nM,,
